Converted amounts (≈) assume the structure as drawn. Read-outs that look alike come from different tables or passages of the source.
Test system: S. aureus clinical isolates
Test: microbe, parasite or virus in culture
Type: cell-based
Details: Staphylococcus aureus, read-out: MIC

`CC[C@H]1OC(=O)[C@H](C)[C@@H](O[C@H]2C[C@@](C)(OC)[C@@H](O)[C@H](C)O2)[C@H](C)[C@@H](O[C@@H]2O[C@H](C)C[C@H](N(C)C)[C@H]2O)[C@](C)(O)C[C@@H](C)CN(C)[C@H](C)[C@@H](O)[C@]1(C)O` [Azithromycin] was tested, and the MIC (ATCC 29213 / MSSA, S. aureus ATCC 29213, MSSA / VSSA, test date 2018-10-25 (three repeat lines)) was 1 µg/mL (≈ 1.34 µM), the MIC (ATCC 29213 / MSSA, S. aureus ATCC 29213, MSSA / VSSA, test date 2018-11-07) was 1 µg/mL (≈ 1.34 µM) and the MIC (MRSA / NRS 3 / VISA, S. aureus IHMA 1308243, NRS3, MRSA / VISA) was > 32 µg/mL. The MIC (MRSA / NRS 4 / VISA, S. aureus IHMA 649380, NRS4, MRSA / VISA) was > 32 µg/mL, the MIC (MRSA / NRS 18 / VISA, S. aureus IHMA 649386, NRS18, MRSA / VISA) was > 32 µg/mL and the MIC (MRSA / NRS 19 / VISA, S. aureus IHMA 649387, NRS19, MRSA / VISA) was > 32 µg/mL. For the same molecule, the MIC (MRSA / NRS 21 / VISA, S. aureus IHMA 649388, NRS21, MRSA / VISA) was 0.5 µg/mL (≈ 0.668 µM), the MIC (MRSA / NRS 22 / USA600 / VISA, S. aureus IHMA 649389, NRS22, MRSA / VISA, USA600) was > 32 µg/mL and the MIC (MRSA / NRS 23 / VISA, S. aureus IHMA 649390, NRS23, MRSA / VISA) was > 32 µg/mL. For the same molecule, the MIC (MRSA / NRS 24 / VISA, S. aureus IHMA 649391, NRS24, MRSA / VISA) was > 32 µg/mL, the MIC (MRSA / NRS 26, S. aureus IHMA 649392, NRS26, MRSA / VSSA) was > 32 µg/mL and the MIC (MRSA / NRS 27 / VISA, S. aureus IHMA 1308248, NRS27, MRSA / VISA) was > 32 µg/mL. For the same molecule, the MIC (MRSA / NRS 29 / VISA, S. aureus IHMA 1308250, NRS29, MRSA / VISA) was > 32 µg/mL, the MIC (MRSA / NRS 37 / VISA, S. aureus IHMA 1308251, NRS37, MRSA / VISA) was > 32 µg/mL and the MIC (MRSA / NRS 54, S. aureus IHMA 1308253, NRS54, MRSA / VSSA* (*Expected VAN intermediate, confirmed VAN susceptible twice), test date 2018-11-07) was > 32 µg/mL. The MIC (MRSA / NRS 56 / VISA, S. aureus IHMA 1308254, NRS56, MRSA / VISA) was > 32 µg/mL, the MIC (MRSA / USA100 / VRSA, S. aureus IHMA 672230, VRS1, MRSA / VRSA, USA100) was > 32 µg/mL and the MIC (MRSA / USA100 / VRSA, S. aureus IHMA 672231, VRS2, MRSA / VRSA, USA100) was > 32 µg/mL. For the same molecule, the MIC (MRSA / USA100 / VRSA, S. aureus IHMA 672234, VRS4, MRSA / VRSA, USA100) was > 32 µg/mL, the MIC (MRSA / USA100 / VRSA, S. aureus IHMA 672235, VRS5, MRSA / VRSA, USA100) was > 32 µg/mL and the MIC (MRSA / USA100 / VRSA, S. aureus IHMA 672237, VRS7, MRSA / VRSA, USA100) was > 32 µg/mL. The MIC (MRSA / USA100 / VRSA, S. aureus IHMA 672238, VRS8, MRSA / VRSA, USA100) was > 32 µg/mL, the MIC (MRSA / USA100 / VRSA, S. aureus IHMA 672239, VRS9, MRSA / VRSA, USA100) was > 32 µg/mL and the MIC (MRSA / USA100 / VRSA, S. aureus IHMA 1308256, VRS10, MRSA / VRSA, USA100) was > 32 µg/mL. For the same molecule, the MIC (MRSA / USA100 / VRSA, S. aureus IHMA 1308258, VRS11b, MRSA / VRSA, USA100) was > 32 µg/mL, the MIC (MRSA / USA800 / VRSA, S. aureus IHMA 672233, VRS3b, MRSA / VRSA, USA800) was > 32 µg/mL and the MIC (MRSA, S. aureus IHMA 1569509, MRSA / VSSA) was > 32 µg/mL. The MIC (MRSA, S. aureus IHMA 1575268, MRSA / VSSA) was > 32 µg/mL, the MIC (MRSA, S. aureus IHMA 1575629, MRSA / VSSA) was 1 µg/mL (≈ 1.34 µM) and the MIC (MRSA, S. aureus IHMA 1577820, MRSA / VSSA) was > 32 µg/mL. For the same molecule, the MIC (MRSA, S. aureus IHMA 1580300, MRSA / VSSA) was 0.5 µg/mL (≈ 0.668 µM), the MIC (MRSA, S. aureus IHMA 1580940, MRSA / VSSA) was > 32 µg/mL and the MIC (MRSA, S. aureus IHMA 1582100, MRSA / VSSA) was > 32 µg/mL. For the same molecule, the MIC (MRSA, S. aureus IHMA 1583795, MRSA / VSSA) was > 32 µg/mL, the MIC (MRSA, S. aureus IHMA 1584223, MRSA / VSSA) was 32 µg/mL (≈ 42.7 µM) and the MIC (MRSA, S. aureus IHMA 1585316, MRSA / VSSA) was > 32 µg/mL. The MIC (MRSA, S. aureus IHMA 1586780, MRSA / VSSA) was 1 µg/mL (≈ 1.34 µM), the MIC (MRSA, S. aureus IHMA 1587322, MRSA / VSSA) was > 32 µg/mL and the MIC (MRSA, S. aureus IHMA 1588127, MRSA / VSSA) was 0.5 µg/mL (≈ 0.668 µM). For the same molecule, the MIC (MRSA, S. aureus IHMA 1591462, MRSA / VSSA) was 1 µg/mL (≈ 1.34 µM), the MIC (MRSA, S. aureus IHMA 1592755, MRSA / VSSA) was 0.5 µg/mL (≈ 0.668 µM) and the MIC (MRSA, S. aureus IHMA 1592776, MRSA / VSSA) was > 32 µg/mL. For the same molecule, the MIC (MRSA, S. aureus IHMA 1597106, MRSA / VSSA) was > 32 µg/mL, the MIC (MRSA, S. aureus IHMA 1602095, MRSA / VSSA) was > 32 µg/mL and the MIC (MRSA, S. aureus IHMA 1611170, MRSA / VSSA) was > 32 µg/mL. The MIC (MRSA, S. aureus IHMA 1611612, MRSA / VSSA) was > 32 µg/mL, the MIC (MRSA, S. aureus IHMA 1612228, MRSA / VSSA) was 16 µg/mL (≈ 21.4 µM) and the MIC (MRSA, S. aureus IHMA 1620441, MRSA / VSSA) was > 32 µg/mL. The MIC (MRSA, S. aureus IHMA 1621638, MRSA / VSSA) was 1 µg/mL (≈ 1.34 µM), the MIC (MRSA, S. aureus IHMA 1622252, MRSA / VSSA) was 1 µg/mL (≈ 1.34 µM) and the MIC (MRSA, S. aureus IHMA 1622527, MRSA / VSSA) was 1 µg/mL (≈ 1.34 µM). The MIC (MRSA, S. aureus IHMA 1666371, MRSA / VSSA) was 0.25 µg/mL (≈ 0.334 µM), the MIC (MRSA, S. aureus IHMA 1695391, MRSA / VSSA) was > 32 µg/mL and the MIC (MRSA, S. aureus IHMA 1703428, MRSA / VSSA) was 0.5 µg/mL (≈ 0.668 µM). The MIC (MRSA, S. aureus IHMA 1720350, MRSA / VSSA) was 32 µg/mL (≈ 42.7 µM), the MIC (MRSA, S. aureus IHMA 1732989, MRSA / VSSA) was > 32 µg/mL and the MIC (MRSA, S. aureus IHMA 1742231, MRSA / VSSA) was > 32 µg/mL. For the same molecule, the MIC (MRSA, S. aureus IHMA 1766357, MRSA / VSSA) was 1 µg/mL (≈ 1.34 µM), the MIC (MSSA / NRS 12 / VISA, S. aureus IHMA 1308244, NRS12, MSSA / VISA) was 0.5 µg/mL (≈ 0.668 µM) and the MIC (MSSA / NRS 13 / VISA, S. aureus IHMA 1308245, NRS13, MSSA / VISA) was 1 µg/mL (≈ 1.34 µM). The MIC (MSSA / NRS 14 / VISA, S. aureus IHMA 1308246, NRS14, MSSA / VISA) was 0.5 µg/mL (≈ 0.668 µM), the MIC (MSSA / NRS 17 / VISA, S. aureus IHMA 1308247, NRS17, MSSA / VISA) was 8 µg/mL (≈ 10.7 µM) and the MIC (MSSA / NRS 28 / VISA, S. aureus IHMA 1308249, NRS28, MSSA / VISA) was > 32 µg/mL. The MIC (MSSA / NRS 52, S. aureus IHMA 1308252, NRS52, MSSA / VSSA* (*Expected VAN intermediate, confirmed VAN susceptible twice), test date 2018-11-07) was 0.25 µg/mL (≈ 0.334 µM), the MIC (MSSA / USA100 / VRSA, S. aureus IHMA 672236, VRS6, MSSA / VRSA, USA100) was > 32 µg/mL and the MIC (MSSA, S. aureus IHMA 1563826, MSSA / VSSA) was 1 µg/mL (≈ 1.34 µM). The MIC (MSSA, S. aureus IHMA 1565492, MSSA / VSSA) was 1 µg/mL (≈ 1.34 µM), the MIC (MSSA, S. aureus IHMA 1569499, MSSA / VSSA) was 0.5 µg/mL (≈ 0.668 µM) and the MIC (MSSA, S. aureus IHMA 1569754, MSSA / VSSA) was > 32 µg/mL. For the same molecule, the MIC (MSSA, S. aureus IHMA 1574202, MSSA / VSSA) was 0.5 µg/mL (≈ 0.668 µM), the MIC (MSSA, S. aureus IHMA 1575652, MSSA / VSSA) was 1 µg/mL (≈ 1.34 µM) and the MIC (MSSA, S. aureus IHMA 1575779, MSSA / VSSA) was > 32 µg/mL. It also gave an MIC (MSSA, S. aureus IHMA 1576329, MSSA / VSSA) of 1 µg/mL (≈ 1.34 µM), an MIC (MSSA, S. aureus IHMA 1577800, MSSA / VSSA) of 1 µg/mL (≈ 1.34 µM) and an MIC (MSSA, S. aureus IHMA 1578560, MSSA / VSSA) of 1 µg/mL (≈ 1.34 µM). The MIC (MSSA, S. aureus IHMA 1580233, MSSA / VSSA) was > 32 µg/mL, the MIC (MSSA, S. aureus IHMA 1580925, MSSA / VSSA) was 1 µg/mL (≈ 1.34 µM) and the MIC (MSSA, S. aureus IHMA 1580955, MSSA / VSSA) was 1 µg/mL (≈ 1.34 µM). The MIC (MSSA, S. aureus IHMA 1582586, MSSA / VSSA) was 1 µg/mL (≈ 1.34 µM), the MIC (MSSA, S. aureus IHMA 1582691, MSSA / VSSA) was > 32 µg/mL and the MIC (MSSA, S. aureus IHMA 1584230, MSSA / VSSA) was 1 µg/mL (≈ 1.34 µM). It also gave an MIC (MSSA, S. aureus IHMA 1587279, MSSA / VSSA) of 1 µg/mL (≈ 1.34 µM), an MIC (MSSA, S. aureus IHMA 1591459, MSSA / VSSA) of 0.5 µg/mL (≈ 0.668 µM) and an MIC (MSSA, S. aureus IHMA 1592749, MSSA / VSSA) of 1 µg/mL (≈ 1.34 µM). The MIC (MSSA, S. aureus IHMA 1592751, MSSA / VSSA) was 1 µg/mL (≈ 1.34 µM), the MIC (MSSA, S. aureus IHMA 1594297, MSSA / VSSA) was 32 µg/mL (≈ 42.7 µM) and the MIC (MSSA, S. aureus IHMA 1597120, MSSA / VSSA) was > 32 µg/mL. The MIC (MSSA, S. aureus IHMA 1597125, MSSA / VSSA) was > 32 µg/mL, the MIC (MSSA, S. aureus IHMA 1599157, MSSA / VSSA) was 1 µg/mL (≈ 1.34 µM) and the MIC (MSSA, S. aureus IHMA 1599506, MSSA / VSSA) was 1 µg/mL (≈ 1.34 µM). For the same molecule, the MIC (MSSA, S. aureus IHMA 1602078, MSSA / VSSA) was > 32 µg/mL, the MIC (MSSA, S. aureus IHMA 1604586, MSSA / VSSA) was 0.25 µg/mL (≈ 0.334 µM) and the MIC (MSSA, S. aureus IHMA 1604609, MSSA / VSSA) was 1 µg/mL (≈ 1.34 µM). The MIC (MSSA, S. aureus IHMA 1609919, MSSA / VSSA) was > 32 µg/mL, the MIC (MSSA, S. aureus IHMA 1622864, MSSA / VSSA) was 1 µg/mL (≈ 1.34 µM) and the MIC (MSSA, S. aureus IHMA 1626392, MSSA / VSSA) was 0.5 µg/mL (≈ 0.668 µM). For the same molecule, the MIC (MSSA, S. aureus IHMA 1713793, MSSA / VSSA) was 1 µg/mL (≈ 1.34 µM).
